# Experimental data published in US11547698B2, “Aryl hydrocarbon receptor modulators” (ARIAGEN, INC., priority 2016, dated 2023).
# pEC50: −log10 of the molar value.
# Biological target: T1, AhR receptor (Homo sapiens, UniProt P35869)
# T1 construct: cells of reporter gene expressing natural (Human Hepatoma Huh-7) AhR receptor; endogenous in cells; host or cells: Human hepatoma Huh-7 reporter cells (firefly luciferase under a receptor-specific response element)
# T1 sequence (P35869 11-848): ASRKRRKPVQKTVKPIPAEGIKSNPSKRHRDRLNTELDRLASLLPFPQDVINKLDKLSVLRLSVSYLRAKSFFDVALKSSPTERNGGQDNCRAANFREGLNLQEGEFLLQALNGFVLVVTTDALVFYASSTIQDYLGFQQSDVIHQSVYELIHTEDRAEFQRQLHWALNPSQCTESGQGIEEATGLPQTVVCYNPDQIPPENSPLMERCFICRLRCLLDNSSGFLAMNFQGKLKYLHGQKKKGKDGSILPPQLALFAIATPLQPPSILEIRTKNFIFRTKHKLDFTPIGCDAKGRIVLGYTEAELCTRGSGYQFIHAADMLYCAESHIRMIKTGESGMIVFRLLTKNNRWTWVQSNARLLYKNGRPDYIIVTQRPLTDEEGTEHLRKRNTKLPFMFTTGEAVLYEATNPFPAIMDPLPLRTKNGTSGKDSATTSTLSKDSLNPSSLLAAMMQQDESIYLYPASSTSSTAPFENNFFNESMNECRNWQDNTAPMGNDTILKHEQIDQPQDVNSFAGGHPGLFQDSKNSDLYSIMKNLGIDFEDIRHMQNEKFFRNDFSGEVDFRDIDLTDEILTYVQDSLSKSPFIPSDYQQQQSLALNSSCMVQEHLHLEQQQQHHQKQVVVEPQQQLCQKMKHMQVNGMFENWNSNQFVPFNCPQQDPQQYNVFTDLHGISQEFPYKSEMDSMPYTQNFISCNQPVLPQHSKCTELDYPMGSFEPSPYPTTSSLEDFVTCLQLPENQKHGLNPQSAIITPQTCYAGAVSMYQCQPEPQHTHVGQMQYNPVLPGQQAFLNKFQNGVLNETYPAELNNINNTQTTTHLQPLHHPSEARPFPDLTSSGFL
# Assay: AhR agonist assay (luciferase reporter gene cells)
# Format: cell-based
# Conditions: reporter cells expressing natural (Human Hepatoma Huh-7) AhR receptor, firefly luciferase, 24 hours at 37° C., 0.1% DMSO
# Protocol: Experimental material (plasmids): cells of reporter gene expressing natural (Human Hepatoma Huh-7) AhR receptor, in which reporter vector comprises a functional firefly luciferase gene connecting to an upstream receptor specific genetic response element (GRE).
# AhR agonist test includes following three steps:
# 1, Implanting into cells: a suspension of reporter cell of AhR receptor was prepared in cell recovery medium (CRM; containing 10% charcoal-treated FBS). Then the suspension (100 μL) was assigned to wells in a white culture plate with 96 wells.
# 2, Before the experiment was about to begin, Master Stocks was diluted to be a processing medium of “concentration of 2 X” by use of appropriate compound screening assay medium (CSM: containing 10% charcoal-treated FBS). Test compounds were diluted with gradient method by use of CSM medium containing 0.2% DMSO to make the final concentration of DMSO in each well of each treatment group being 0.1%. The processing medium was added to culture plate (100 μL/well) on which cells containing reporter gene had been laid in advance in wells by means of double duplicate. The culture plate was placed in an incubator of 37° C. for 24 hours.
# 3, Fluorescence detection and analysis: after incubation, the processing medium was discarded and luciferase detection reagent was added 100 μL/well. Ave RLU (mean relative fluorescence intensity) of each well and coefficient of variation for each set of experiments were detected. Ratio of Ave RLU^Test Cmpd of treatment groups with test compound of different concentrations to Ave RLU^Vehicle of blank control group can determine activity quantitatively of AhR receptor under influence of test compound of different concentrations and activating multiples as well as EC50.
# Processing method of data may refer to J. Biomol.
row,Compound,pEC50
1,COC(=O)c1csc(C(=O)c2cn(C3OC(COC(C)=O)C(OC(C)=O)C(OC(C)=O)C3OC(C)=O)c3ccccc23)n1 (stereo not shown) [Compound 38-1],6.00 to 9.00
2,COCCOCCOCCOC(=O)n1cc(C(=O)c2nc(C(=O)OC)cs2)c2ccccc21 [Compound 5],6.00 to 9.00
3,COC(=O)c1nsc(C(=O)c2c[nH]c3ccccc23)n1 [Compound 8],5.00 to 6.00
4,COC(=O)c1csc(C(=O)c2cn(C3OC(COC(C)=O)C(OC(C)=O)C(OC(C)=O)C3OC(C)=O)c3ccccc23)n1 (stereo not shown) [Compound 38-2],6.00 to 9.00
5,COC(=O)c1nnc(C(=O)c2c[nH]c3ccccc23)o1 [Compound 34],5.00 to 6.00
6,COC(=O)c1csc(C(=O)c2cn(C3OC(CO)C(O)C(O)C3O)c3ccccc23)n1 (stereo not shown) [Compound 38-4],6.00 to 9.00
7,CC(C)c1csc(C(=O)c2c[nH]c3ccccc23)n1 [Compound 21],6.00 to 9.00
8,COC(=O)c1csc(C(=O)c2c[nH]c3ccc(OC)cc23)n1 [Compound 19-2],6.00 to 9.00
9,COC(=O)c1c[nH]c(C(=O)c2c[nH]c3ccccc23)n1 [Compound 23],6.00 to 9.00
10,COC(=O)c1csc(C(=O)c2cn(C3OC(COC(C)=O)C(O)C(O)C3O)c3ccccc23)n1 (stereo not shown) [Compound 38-3],6.00 to 9.00
11,COC(=O)c1csc(C(=O)c2cn(COC(=O)[C@@H](N)C(C)C)c3ccccc23)n1 [Compound 1-2],6.00 to 9.00
12,COC(=O)c1csc(C(=O)c2cn(CO)c3ccccc23)n1 [Compound 37],6.00 to 9.00
13,COC(=O)c1ccc(C(=O)c2c[nH]c3ccccc23)nc1 [Compound 18],5.00 to 6.00
14,COC(=O)c1csc(C(=O)c2cn(C(=O)[C@@H](N)C(C)C)c3ccccc23)n1 [Compound 4-2],6.00 to 9.00
15,CC(C)[C@H](NC(=O)OC(C)(C)C)C(=O)n1cc(C(=O)c2nc(-c3nccs3)cs2)c2ccccc21 [Compound 42-1],6.00 to 9.00
16,COC(=O)COCn1cc(C(=O)c2nc(C(=O)OC)cs2)c2ccccc21 [Compound 3],6.00 to 9.00
17,COC(=O)c1csc(C(=O)c2cn(COC(=O)[C@@H](N)C(C)(C)C)c3ccccc23)n1 [Compound 2-2],6.00 to 9.00
18,COC(=O)C1CSC(C(=O)c2c[nH]c3ccc(OC)cc23)=N1 (stereo not shown) [Compound 19-1],6.00 to 9.00
19,COCCOCCOCCOCC(=O)OCC(=O)OCn1cc(C(=O)c2nc(C(=O)OC)cs2)c2ccccc21 [Compound 7],6.00 to 9.00
20,COCCOCCOCCOCC(=O)OCn1cc(C(=O)c2nc(C(=O)OC)cs2)c2ccccc21 [Compound 6],6.00 to 9.00
21,COC(=O)c1ccc(C(=O)c2c[nH]c3ccccc23)n1C [Compound 12],6.00 to 9.00
22,CC(C)c1nc(C(=O)c2c[nH]c3ccccc23)cs1 [Compound 9],6.00 to 9.00
23,COC(=O)c1csc(C(=O)c2c[nH]c3ccccc23)c1 [Compound 15],4.00 to 5.00

# Second part, the compound after the results:
row,pEC50,Compound
1,6.00 to 9.00,O=C(c1nc(-c2ccco2)cs1)c1c[nH]c2ccccc12 [Compound 40]
2,6.00 to 9.00,COC(=O)c1coc(-c2csc(C(=O)c3c[nH]c4ccccc34)n2)n1 [Compound 30-2]
3,6.00 to 9.00,O=C(c1nc(-c2ncco2)cs1)c1c[nH]c2ccccc12 [Compound 33-2]
4,6.00 to 9.00,O=C(c1nc(-c2nnc[nH]2)cs1)c1c[nH]c2ccccc12 [Compound 36]
5,6.00 to 9.00,O=C(c1nc(-c2nccs2)cs1)c1c[nH]c2ccccc12 [Compound 31-2]
6,6.00 to 9.00,COC(=O)C1CSC(c2csc(C(=O)c3c[nH]c4ccccc34)n2)=N1 (stereo not shown) [Compound 32-1]
7,5.00 to 6.00,COC(=O)c1csc(/C(=N/O)c2c[nH]c3ccccc23)n1 [Compound 26-1]
8,6.00 to 9.00,COC(=O)[C@@H]1COC(c2csc(C(=O)c3c[nH]c4ccccc34)n2)=N1 [Compound 30-1]
9,6.00 to 9.00,Nc1nc(-c2csc(C(=O)c3c[nH]c4ccccc34)n2)cs1 [Compound 44]
10,6.00 to 9.00,COC(=O)CNC(=O)c1csc(C(=O)c2c[nH]c3ccccc23)n1 [Compound 27]
11,6.00 to 9.00,O=C(c1nc(-c2c[nH]cn2)cs1)c1c[nH]c2ccccc12 [Compound 43-2]
12,6.00 to 9.00,CC(C)[C@H](N)C(=O)n1cc(C(=O)c2nc(-c3nccs3)cs2)c2ccccc21 [Compound 42-2]
13,5.00 to 6.00,O=C(c1nc(-c2nnn[nH]2)cs1)c1c[nH]c2ccccc12 [Compound 35]
14,4.00 to 5.00,COC(=O)c1csc(Cc2c[nH]c3ccccc23)n1 [Compound 28]
15,6.00 to 9.00,O=C(c1nc(C2CC2)cs1)c1c[nH]c2ccccc12 [Compound 41]
16,6.00 to 9.00,O=C(c1nc(C2=NCCO2)cs1)c1c[nH]c2ccccc12 [Compound 33-1]
17,6.00 to 9.00,O=C(c1nc(-c2ccccn2)cs1)c1c[nH]c2ccccc12 [Compound 22]
18,5.00 to 6.00,COC(=O)c1csc(/C(=N\O)c2c[nH]c3ccccc23)n1 [Compound 26-2]
19,5.00 to 6.00,CO/N=C(/c1nc(C(=O)OC)cs1)c1c[nH]c2ccccc12 [Compound 25-1]
20,6.00 to 9.00,COC(=O)c1csc(-c2csc(C(=O)c3c[nH]c4ccccc34)n2)n1 [Compound 32-2]
21,6.00 to 9.00,O=C(c1nc(C2=NCCS2)cs1)c1c[nH]c2ccccc12 [Compound 31-1]
22,5.00 to 6.00,CO/N=C(\c1nc(C(=O)OC)cs1)c1c[nH]c2ccccc12 [Compound 25-2]
23,6.00 to 9.00,O=C(c1nc(-c2cnccn2)cs1)c1c[nH]c2ccccc12 [Compound 39]
